System: C. albicans
Assay: systemic mouse candidiasis, in-vivo antimycotic activity
Settings: male CFW1 mice infected i.v. with 3×10^5 CFU C. albicans; 50 mg/kg 2 × daily p.o. for 5 days; survival up to 10th day p.i.; 10 animals per group
Description: Testing of in-vivo activity
The test model for antimycotic in-vivo actions used was systemic mouse candidias is:
Male CFW1 mice of weight 20 g were infected in the tail vein by injection of 3×10^5 CFU of C. albicans per animal.
Untreated control animals died completely within one week post-infectionem (p.i.) of a generalized candidiasis with granuloma formation in the kidneys. For activity testing, the preparations, dissolved in a 0.2% strength aqueous glucose-agar solution, were administered orally by stomach tube to the infected animals twice daily.
The daily doses were 2×50 mg/kg of body weight (BW), the treatment period was 5 days.
The survival rates of the treated animals were noted daily up to the 10th day p.i. In the case of the untreated control animals, no animals survived at this point.
For the preparations, 10 animals each were employed per dose and control group.

## C=C1C[C@H](NC(=O)[C@@H](NC(=O)[C@@H](N)C(C)CC)C(C)CC)[C@H](C(=O)O)C1 (relative stereo) [Example 1, (-)-1,2-cis-(2-((S)-Isoleucyl)-(S)-isoleucylamino)-4-methylenecyclopentane-1-carboxylic acid]
  Number of surviving animals: 8/10
